pIC50: −log10 of the molar value.
Tests used:
[1] = target: T1, α2β1 (Homo sapiens, UniProt P05556+P17301); assay: α2β1/collagen I cell adhesion assay (K562 transfected with human α2 integrin chain); assay type: cell-based; settings: adhesion format, 1 mM MnCl2
T1 construct: expressed in transfected cells; host or cells: K562 cells transfected with human α2 integrin chain (gift from M. Hemler)
Experimental: (§1) The ability of test compounds to block α2β1/collagen I and α1β1/collagen IV interactions were evaluated in cell adhesion assays. Collagen I and collagen IV were immobilized onto a 96-well Corning Easy Wash plate (Corning Cat. No. 25801). Human integrin-expressing cell lines (2×10^5/well) were labeled with a fluorescent compound, 2 μM BCECF-AM (Molecular Probes, Eugene, Oreg., Cat# B1150), and added with or without test compounds. After 30 minutes, the plates were washed, and bound cells quantified in a Cytofluor fluorescence plate reader. The assay buffer was TRIS-buffered saline (TBS: 24 mM TRIS, 137 mM NaCl, 2.7 mM KCl, 2 mM glucose, 0.1% BSA, pH 7.4), containing 1 mM MnCl2. The specificity of binding was controlled for using integrin specific neutralizing monoclonal antibodies. The antibodies were run at 10 μg/mL on each day of the assay and were as follows: anti-α4β1, mAb HP1/2 (Biogen); anti-α2β1, mAb 26G8 (Biogen); and α1β1, mAb AJH10 (Biogen).
(§2) The results presented in Table 3 summarize the integrin selectivity for PEGylated inhibitors. The selectivity of the PEGylated inhibitors for the four integrins indicated were tested in adhesion formats for α1β1 and α2β1, and by direct binding for α4β7. Serial dilutions of each compound were tested and IC50 values calculated from the concentration dependence of the inhibition curves. […]

[2] = target: α1β1 (Homo sapiens, UniProt P05556+P56199); assay: α1β1/collagen IV cell adhesion assay (K562 transfected with human α1-integrin chain); assay type: cell-based; settings: adhesion format, 1 mM MnCl2
Sequence of α1β1 (P56199 29-1179): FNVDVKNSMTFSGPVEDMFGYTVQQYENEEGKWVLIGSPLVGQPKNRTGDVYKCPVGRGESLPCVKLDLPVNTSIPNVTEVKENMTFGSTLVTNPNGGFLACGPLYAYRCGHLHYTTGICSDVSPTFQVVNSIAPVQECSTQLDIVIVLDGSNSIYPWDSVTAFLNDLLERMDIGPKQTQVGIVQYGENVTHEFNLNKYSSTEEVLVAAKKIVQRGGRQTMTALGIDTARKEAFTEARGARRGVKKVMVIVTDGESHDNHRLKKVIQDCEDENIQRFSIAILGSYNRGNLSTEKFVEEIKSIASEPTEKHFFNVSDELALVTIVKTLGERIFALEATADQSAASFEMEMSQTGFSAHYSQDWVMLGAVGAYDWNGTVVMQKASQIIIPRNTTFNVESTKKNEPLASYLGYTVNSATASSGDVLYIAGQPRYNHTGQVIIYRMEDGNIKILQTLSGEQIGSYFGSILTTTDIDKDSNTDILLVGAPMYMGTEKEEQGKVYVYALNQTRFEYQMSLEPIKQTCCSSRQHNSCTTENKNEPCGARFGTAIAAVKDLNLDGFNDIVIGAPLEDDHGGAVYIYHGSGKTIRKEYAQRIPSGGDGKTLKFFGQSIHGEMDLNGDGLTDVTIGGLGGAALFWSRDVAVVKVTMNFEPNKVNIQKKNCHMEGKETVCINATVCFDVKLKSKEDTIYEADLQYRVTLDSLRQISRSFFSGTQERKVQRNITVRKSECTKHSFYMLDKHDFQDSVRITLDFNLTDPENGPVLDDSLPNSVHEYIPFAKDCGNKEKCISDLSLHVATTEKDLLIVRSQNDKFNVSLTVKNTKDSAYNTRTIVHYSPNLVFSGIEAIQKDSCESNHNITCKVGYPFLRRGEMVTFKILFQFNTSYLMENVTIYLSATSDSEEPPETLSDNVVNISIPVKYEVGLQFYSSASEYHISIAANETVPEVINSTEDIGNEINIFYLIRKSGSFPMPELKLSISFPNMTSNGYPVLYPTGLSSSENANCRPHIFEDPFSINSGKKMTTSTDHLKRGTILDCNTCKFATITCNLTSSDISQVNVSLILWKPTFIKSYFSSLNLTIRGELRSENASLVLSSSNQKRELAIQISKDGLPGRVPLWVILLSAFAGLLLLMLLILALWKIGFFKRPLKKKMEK
Sequence of α1β1 (P05556 21-798): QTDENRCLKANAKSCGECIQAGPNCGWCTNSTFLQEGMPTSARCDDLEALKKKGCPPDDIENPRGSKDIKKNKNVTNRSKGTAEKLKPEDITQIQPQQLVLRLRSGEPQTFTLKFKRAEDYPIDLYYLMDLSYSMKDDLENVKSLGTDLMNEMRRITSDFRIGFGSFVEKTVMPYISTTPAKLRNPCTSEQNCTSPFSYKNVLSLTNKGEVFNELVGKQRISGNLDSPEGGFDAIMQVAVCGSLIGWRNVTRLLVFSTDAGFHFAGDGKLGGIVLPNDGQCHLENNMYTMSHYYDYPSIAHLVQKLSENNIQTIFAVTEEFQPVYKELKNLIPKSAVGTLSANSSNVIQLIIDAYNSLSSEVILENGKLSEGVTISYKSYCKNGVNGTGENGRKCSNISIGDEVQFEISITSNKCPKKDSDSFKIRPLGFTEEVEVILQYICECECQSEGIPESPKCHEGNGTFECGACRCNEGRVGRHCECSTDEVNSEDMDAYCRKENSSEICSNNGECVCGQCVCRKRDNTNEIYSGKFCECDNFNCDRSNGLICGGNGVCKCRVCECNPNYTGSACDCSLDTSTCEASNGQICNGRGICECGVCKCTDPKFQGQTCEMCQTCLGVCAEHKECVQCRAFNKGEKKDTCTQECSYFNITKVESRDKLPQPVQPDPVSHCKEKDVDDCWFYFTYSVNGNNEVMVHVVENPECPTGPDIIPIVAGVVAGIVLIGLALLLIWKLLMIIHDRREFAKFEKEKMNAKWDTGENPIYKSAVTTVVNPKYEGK
Experimental: as §1, §2

[3] = Pharmacokinetics in female Lewis rats, noncompartmental analysis; settings: rat, in vivo
Experimental: Blood samples (250 μL/bleed) were obtained at specific timepoints after administration. For compound H, blood samples were drawn at 0, 8 minutes, 15 minutes, 30 minutes, and after 1 hour, 2, 4, 6, 8, 24, 32, 48, 72 and 168 hours following i.v. administration, and 1, 2, 4, 6, 8, 24, 32, 48, and 72 hours following s.c. administration. Serum samples were analyzed for compound H levels using an electrochemiluminescence assay. PK parameters were calculated from the […] data by noncompartmental analysis. PK parameters include CMAX (maximum serum concentration), tMAX (time to achieve maximum serum concentration), CL (systemic clearance), Vss (volume of distribution at steady state), t1/2 (terminal phase half-life), and bioavailability. Area under the curve (AUC) was calculated using the trapezoidal rule. Percent bioavailability was calculated from the following equation: (AUCextravascular/AUCIV)×(DoseIV/Doseextravascular)×100. For compound R^1, blood samples were drawn and analyzed as previously described (see Leone, D. R., et al. (2003) J. Pharmacol. Exp. Ther. 305:1150–1162).
Dilutions of test samples in 50 mM HEPES pH 7.5, 100 mM NaCl, 0.1% Triton X-100, 1 mM MnCl2, 1% rat plasma, 50 ng/mL α4β1 and 0.1 μg/mL ruthenium labeled mAb B5G10 were incubated at room temperature for 20 min. 0.5 nM A-biotin was added and samples were incubated for 60 minutes at room temperature. 50 μL of a 0.5 mg/mL solution of Dynabeads M-280 Streptavidin beads (Cat No. 402–175-02, Igen, Inc., Gaithersburg, Md.) that have been prepared in assay buffer containing 8% rat plasma was added and the samples were incubated for 30 minutes at room temperature with constant mixing. 150 μL of Origen assay buffer was added and samples were analyzed in a model 1100–1000 Origen analyzer (Igen, Inc) following the manufacturer's instructions. Concentrations of compound H were interpolated from a standard curve generated with compound H that had been diluted with plasma.
The pharmacokinetic properties of compounds H and R were evaluated by noncompartmental analysis following i.v. and s.c. administration in female Lewis rats (FIG. 2). […] Compound R was rapidly cleared from circulation.

[4] = target: T2, α4β1 (Homo sapiens, UniProt P05556+P13612); assay: VCAM-Ig direct binding assay (DBA), Jurkat cells
T2 sequence (P13612 34-1032): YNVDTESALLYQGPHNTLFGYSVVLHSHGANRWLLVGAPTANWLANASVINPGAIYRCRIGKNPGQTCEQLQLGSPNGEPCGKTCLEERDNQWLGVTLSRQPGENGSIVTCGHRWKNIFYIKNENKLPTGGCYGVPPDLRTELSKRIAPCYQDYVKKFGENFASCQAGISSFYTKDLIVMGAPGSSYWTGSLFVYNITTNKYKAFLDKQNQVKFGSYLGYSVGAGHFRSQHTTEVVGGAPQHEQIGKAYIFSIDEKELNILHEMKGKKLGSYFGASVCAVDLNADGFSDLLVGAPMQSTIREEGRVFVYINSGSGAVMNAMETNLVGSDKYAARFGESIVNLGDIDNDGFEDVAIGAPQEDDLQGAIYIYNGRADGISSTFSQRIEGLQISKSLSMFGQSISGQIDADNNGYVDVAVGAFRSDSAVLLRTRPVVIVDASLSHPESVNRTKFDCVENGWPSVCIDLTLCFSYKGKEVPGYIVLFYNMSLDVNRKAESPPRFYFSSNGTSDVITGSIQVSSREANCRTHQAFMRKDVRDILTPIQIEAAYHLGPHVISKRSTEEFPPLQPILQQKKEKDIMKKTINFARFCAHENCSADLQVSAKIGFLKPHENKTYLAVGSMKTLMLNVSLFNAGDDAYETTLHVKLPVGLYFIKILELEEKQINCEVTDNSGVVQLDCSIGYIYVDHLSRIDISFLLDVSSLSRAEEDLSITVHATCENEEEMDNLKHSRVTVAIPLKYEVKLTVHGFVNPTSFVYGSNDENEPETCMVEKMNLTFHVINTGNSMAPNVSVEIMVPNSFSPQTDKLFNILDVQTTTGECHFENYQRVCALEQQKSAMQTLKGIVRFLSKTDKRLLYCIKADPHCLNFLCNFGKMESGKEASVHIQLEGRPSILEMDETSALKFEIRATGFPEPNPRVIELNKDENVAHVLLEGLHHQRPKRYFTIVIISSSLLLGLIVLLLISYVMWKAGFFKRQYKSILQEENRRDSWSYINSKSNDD
T2 sequence (P05556 21-798): as the sequence (P05556 21-798) above
Description: A direct binding assay may also be employed to quantitate the inhibitory activity of the compounds. In this assay, a VCAM-IgG fusion protein containing the first two immunoglobulin domains of VCAM (D1D2) attached above the hinge region of an IgG1 molecule (“VCAM 2D-IgG”), is conjugated to a marker enzyme, such as alkaline phosphatase (“AP”). […] The conjugation of that fusion to a marker enzyme is achieved by cross-linking methods well-known in the art.
The VCAM-IgG enzyme conjugate is then placed in the wells of a multi-well filtration plate, such as that contained in the Millipore Multiscreen Assay System (Millipore Corp., Bedford, Mass.). Varying concentrations of the test inhibitory compound are then added to the wells followed by addition of VLA-4-expressing cells. The cells, compound and VCAM-IgG enzyme conjugate are mixed together and allowed to incubate at room temperature. Following incubation, the wells are vacuum drained, leaving behind the cells and any bound VCAM. Quantitation of bound VCAM is determined by adding an appropriate calorimetric substrate for the enzyme conjugated to VCAM-IgG and determining the amount of reaction product. Decreased reaction product indicates increased binding inhibitory activity.
Samples were also evaluated for function using the VCAM-Ig direct binding assay. Details for the construction of the VCAM-Ig animal cell expression vector, the generation of a Chinese hamster ovary (CHO) cell line expressing VCAM-Ig, conjugation of the VCAM-Ig to alkaline phosphatase, and the development of a direct binding assay for characterizing α4β1 and α4β7 binding to VCAM-Ig were as previously described (see Lobb, R. R., et al. (1995) Cell Adhes. Commun. 3:385–397).
For these studies, a series of compounds based on compound E containing 0.35, 2, 5, 20, 30, and 50 kDa-mPEG was synthesized and tested for binding to α4β1 on Jurkat cells with VCAM-Ig as a reporter (see methods).

[5] = target: T2, α4β1; assay: Equilibrium binding on Jurkat cells, competition with 35S-B as reporter
Experimental: The α4β1-expressing Jurkat human T-cell line (a gift from S. Burakoff, Dana Farber Cancer Institute, Boston, Mass.), and the α4β7-expressing human B-cell line, JY (American Type Tissue Collection, Rockville, Md.) were maintained in culture at 37° C. in RPMI-1640 medium supplemented with 10% fetal bovine serum (FBS). K562 cell lines transfected with either the human α1-integrin chain (Phil Gotwells, Biogen, Inc) or with the human α2 integrin chain (a gift from M. Hemler, Dana Farber Cancer Institute, Boston, Mass.) were maintained in RPMI-1640 medium supplemented with 10% FBS and 1 mg/mL G418. All cells were periodically monitored for high integrin surface expression by FACS analysis. The binding of the various inhibitors to α4β1 were assessed on Jurkat cells by competition using radioactive ^35S-B as a reporter for a 1 occupancy. Jurkat cells were pelleted by centrifugation, washed two times with TBS (50 mM Tris HCl, 150 mM NaCl, 0.1% bovine serum albumin, 2 mM glucose, 10 mM HEPES pH 7.4), suspended at approximately 2×10^6 cells/mL in TBS, and counted using a Neubauer hemocytometer. The cells were further diluted 2×10^6 cells/mL with TBS containing 1 mM CaCl2 and 1 mM MgCl2 and treated with serial dilutions of test compound for 1 hour, and then 5 nM ^35S-B, an amount sufficient to bind all unoccupied receptors, was added for 10 minutes before measuring the bound counts. The cells were then pelleted by centrifugation, resuspended in 100 μL of TBS plus Mn^2+, and transferred to a scintillation vial containing 2.9 mL of ScintiVerse II (Fisher Scientific). Cell-associated radioactivity was quantified by scintillation counting. All studies were performed in siliconized 1.5 mL eppendorf tubes with a standard 1 mL sample volume. Each condition was tested in at least two independent studies. Non-specific binding of ^35S-B to cells was assessed at each cell density and ^35S-B concentration in TBS but in the absence of added metal ion. Specific counts bound were calculated by subtracting non specific counts from total counts bound. Counts bound under these conditions measures integrin that is not occupied by the test compound and is therefore free to bind the ^35S-B. The competition format was also used for kinetic binding studies. Binding and dissociation constants were calculated from α4β1 that remained free to bind the ^35S-B after treatment with test compound.
The affinities of the PEGylated inhibitors for α4β1 were calculated from association and disassociation rate constants using a kinetic analysis. For these studies, Jurkat cells expressing α4β1 (75,000 copies/cell) were treated with the inhibitors and then ^35S-B was added as a probe to detect free α4β1. The levels of bound inhibitor were calculated from a measure of total ^35S-B bound in the absence of added inhibitor and counts bound following inhibitor treatment. […] IC50 values were calculated from equilibrium binding studies on Jurkat cells through competition using ^35S-B as a reporter in buffer containing 1 mM Ca^2+ and 1 mM Mg^2+.
Second, the effect of protein binding on the affinity of the PEGylated inhibitors for α4β1 on Jurkat cells was evaluated from equilibrium binding measurements.

[6] = system: lymphocyte count; assay: Lymphocyte counts following inhibitor treatment (lymphocytosis); assay type: in vivo, rat; settings: 30 mg/kg s.c., single dose
Experimental: Female Lewis rats were injected with a single dose of either compound H (1 mg/kg, s.c in PBS), or compound R (30 mg/kg, s.c., in TRIS/lactose) or with their respective vehicles at time 0. At each timepoint, 0.3 mL blood from triplicate animals was drawn from the jugular vein without anesthesia and collected into Capiject purple-top microtainer tubes containing EDTA (Terumo Medical Corporation #T-MQK). […] samples were analyzed for lymphocyte count using an Abbott CellDyn 3500 cell analyzer. Blood samples from the compound H-treated animals were drawn at 4 hours, 8 hours, 12 hours, and on days 1, 2, 3, 4, 5, 6, 7, 8, and 9 and for the compound R-treated animals after 2, 6, 24, and 48 h.
Administration of compounds R and H to rats produced an α4β1-integrin dependent lymphocytosis that was sustained as long as sufficient concentrations of the inhibitors were maintained in circulation. From previous studies >90% of α4β1 receptors are estimated to be occupied to maintain lymphocytosis and therefore a target concentration of greater than or equal to 10 ng/mL compound needs to be maintained (see Leone, D. R., et al. (2003) J. Pharmacol. Exp. Ther. 305:1150–1162). […] A 2–3 fold increase in lymphocyte levels was observed. […] Elevated lymphocyte levels were maintained for 6 days. By day 9 lymphocyte levels had returned to normal. […]

[7] = system: EAE; assay: Rat EAE model induced with myelin basic protein peptide; assay type: in vivo; settings: daily 30 mg/kg s.c.
[8] = IC50, buffer with 1 mM Ca2+ and 1 mM Mg2+, no plasma

T1 sequence (P17301 30-1181): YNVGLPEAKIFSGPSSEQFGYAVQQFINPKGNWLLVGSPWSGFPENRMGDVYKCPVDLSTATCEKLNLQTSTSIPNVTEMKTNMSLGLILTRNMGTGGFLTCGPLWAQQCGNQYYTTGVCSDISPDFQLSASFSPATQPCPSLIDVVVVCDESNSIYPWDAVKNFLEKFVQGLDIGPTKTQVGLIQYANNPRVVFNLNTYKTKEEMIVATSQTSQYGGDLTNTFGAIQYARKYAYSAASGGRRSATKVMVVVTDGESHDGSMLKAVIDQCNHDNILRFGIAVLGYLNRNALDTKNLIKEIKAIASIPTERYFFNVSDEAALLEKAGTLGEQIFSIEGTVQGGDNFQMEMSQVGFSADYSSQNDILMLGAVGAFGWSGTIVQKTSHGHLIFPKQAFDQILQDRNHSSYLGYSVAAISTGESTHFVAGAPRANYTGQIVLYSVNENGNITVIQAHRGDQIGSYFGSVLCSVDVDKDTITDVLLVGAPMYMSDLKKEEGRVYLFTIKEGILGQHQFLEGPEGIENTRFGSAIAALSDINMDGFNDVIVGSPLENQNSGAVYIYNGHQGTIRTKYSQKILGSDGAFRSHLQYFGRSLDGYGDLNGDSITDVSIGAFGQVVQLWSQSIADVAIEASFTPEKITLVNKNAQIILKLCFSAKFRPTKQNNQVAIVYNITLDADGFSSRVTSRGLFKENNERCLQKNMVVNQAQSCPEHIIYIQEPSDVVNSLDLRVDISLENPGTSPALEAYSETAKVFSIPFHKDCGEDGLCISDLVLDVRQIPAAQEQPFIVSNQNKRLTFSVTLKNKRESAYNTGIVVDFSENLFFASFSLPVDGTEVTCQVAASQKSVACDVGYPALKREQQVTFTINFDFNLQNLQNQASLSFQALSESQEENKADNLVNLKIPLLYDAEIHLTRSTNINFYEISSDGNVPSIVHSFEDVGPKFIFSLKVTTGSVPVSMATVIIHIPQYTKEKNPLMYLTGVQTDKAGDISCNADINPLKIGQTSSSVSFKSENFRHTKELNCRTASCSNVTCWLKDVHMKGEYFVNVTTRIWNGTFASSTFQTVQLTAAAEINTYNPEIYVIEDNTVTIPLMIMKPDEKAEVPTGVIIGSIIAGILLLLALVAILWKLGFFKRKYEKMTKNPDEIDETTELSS
T1 sequence (P05556 21-798): as the sequence (P05556 21-798) above

## Cc1ccccc1NC(=O)Nc1ccc(CC(=O)N(C)[C@@H](CC(C)C)C(=O)NCC[C@H](NC(=O)C2CCCN2S(=O)(=O)c2ccccc2)C(=O)O)cc1 (stereo partly drawn) [Compound B, 2S-[(1-benzenesulfonyl-pyrrolidine-2S-carbonyl)-amino]-4-[4-methyl-2S-(methyl-{2-[4-(3-o-tolyl-ureido)-phenyl]-acetyl}-amino)-pentanoylamino]-butyric acid]
[1]
  pIC50: 5.30
[2]
  pIC50: < 5.00
[3]; iv
  half-life: 2.5 h
[3]; sc
  bioavailability: 21%
[4]; DBA IC50 100% rat plasma, 100% rat plasma
  pIC50: 7.89
[4]; DBA IC50 Ca2+Mg2+, Ca2+Mg2+
  pIC50: 8.70
[4]; DBA IC50 Mn2+, Mn2+
  pIC50: 8.92
[5]; IC50(HP), 100% human plasma
  pIC50: 8.82
[5]; [8]
  pIC50: 9.68

## Cc1ccccc1NC(=O)Nc1ccc(CC(=O)N(C)[C@@H](CC(C)C)C(=O)NCC[C@H](NC(=O)[C@@H]2CCCN2S(=O)(=O)c2cc(Cl)cc(Cl)c2)C(=O)O)cc1 [Compound R, 2S-{[1-(3,5-dichloro-benzenesulfonyl)-pyrrolidine-2S-carbonyl]-amino}-4-[4-methyl-2S-(methyl-{2-[4-(3-o-tolyl-ureido)-phenyl]-acetyl}-amino)-pentanoylamino]-butyric acid]
[3]; iv, 1 mg/kg
  AUC: 2300 ng·h/mL
  Cmax: 13100 ng/mL
  Tmax: 0 h
  Vd: 0.168 L/kg
  clearance: 7.1 mL/min/kg
  half-life: 1.1 h
[3]; sc, 10 mg/kg
  AUC: 6100 ng·h/mL
  CL: 27.17 mL/min/kg
  Cmax: 780 ng/mL
  Tmax: 0.5 h
  bioavailability: 20%
  half-life: 2.7 h
  time >100 ng/mL blood levels were maintained: 12 h
[6]
  day by which lymphocyte levels returned to normal: ≤ 2 days
  duration of lymphocytosis: one
[7]
  mean paralytic score reached: 3.0
[5]; IC50(HP), 100% human plasma
  pIC50: 9.10
[5]; [8]
  pIC50: 9.82

Reference: patent US7196112B2, “Cell adhesion inhibitors” (Biogen Idec MA Inc., priority 2004, dated 2007)
